Assay [1] deals with T1, OR6A2 (Homo sapiens, UniProt O95222).
T1 construct: OR6A2 protein surface expression in hMDMs was confirmed by flow cytometry; endogenous in cells; host or cells: human monocyte-derived macrophages from healthy donors (rhM-CSF, 7 d)
T1 sequence (O95222 1-327): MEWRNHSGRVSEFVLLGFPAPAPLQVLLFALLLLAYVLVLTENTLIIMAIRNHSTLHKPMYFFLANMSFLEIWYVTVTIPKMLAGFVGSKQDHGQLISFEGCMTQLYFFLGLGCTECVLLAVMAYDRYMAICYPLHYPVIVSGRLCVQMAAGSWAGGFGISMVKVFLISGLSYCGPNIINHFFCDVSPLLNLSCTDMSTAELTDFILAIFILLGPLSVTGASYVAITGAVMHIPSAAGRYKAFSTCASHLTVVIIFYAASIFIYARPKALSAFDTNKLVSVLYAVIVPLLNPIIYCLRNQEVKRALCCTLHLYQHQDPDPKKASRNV
Description: IL-1β production in LPS-primed human MDMs. The class given is cell-based. The protocol:
Mouse BMDMs and human MDMs were pretreated with LPS (50 ng/mL) or left untreated for 18 h at 37° C. and 5% CO2. After this period LPS pretreated and untreated cells were further incubated with Oct (10 μM) and Cit (100 μM) alone (LPS+Oct; LPS+Cit; Oct; Cit, respectively) or combined (LPS+Oct+Cit) for further 8 h. Supernatants were collected by centrifugation at 2000 g for 15 minutes at 4° C., collected and frozen at −80° C. until further IL-1β analysis by CBA (BD Biosciences).
Supernatants of stimulated cells and aortic tissue were analyzed by BD CBA Flex Sets (BD Biosciences) for mouse TNFα, CCL2, CCL4, IL-1β, or human TNF, IL6, and IL-1β according to the manufacturer's protocol. Samples were analyzed with LSR-II (BD Biosciences). Data was acquired with FACSDiva software (BD Biosciences) and analyzed with FCAP array software 3.0 (BD Biosciences).

Assay [2] deals with T2, Olfr2 (Mus musculus, UniProt Q9QWU6).
T2 sequence (Q9QWU6 1-327): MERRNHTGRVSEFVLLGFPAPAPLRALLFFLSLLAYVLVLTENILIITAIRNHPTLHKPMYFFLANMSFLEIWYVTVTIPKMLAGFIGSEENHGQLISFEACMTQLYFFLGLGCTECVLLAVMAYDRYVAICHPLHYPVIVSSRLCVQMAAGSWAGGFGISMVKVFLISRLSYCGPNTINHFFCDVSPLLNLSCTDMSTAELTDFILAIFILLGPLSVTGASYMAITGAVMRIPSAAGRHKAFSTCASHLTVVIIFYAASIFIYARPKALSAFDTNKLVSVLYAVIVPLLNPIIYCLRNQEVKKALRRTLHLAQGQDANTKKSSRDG
Put plainly: Calcium signalling (Fluo-4, flow cytometry) in vascular macrophages. The arrangement: Olfr2 expression was confirmed at the protein level on F4/80^+ vascular macrophages; from tissue; host or cells: explanted whole aortas, digested aortic cell suspensions (F4/80+ vascular macrophages) and blood monocytes of Apoe-/- C57BL/6J mice; living Apoe-/- mice for the in vivo study. The class given is cell-based. How it is done: The role of Olfr2 ligation on inflammatory responses was investigated by measuring intracellular free calcium (Can in vascular macrophages. Briefly, mouse aortic cell suspensions were loaded with 2 μM Fluo-4 at 37° C. for 30 min, then washed and incubated with cell surface markers at RT for 20 min CD45^+, live, dump channel^− (TCRb^−, CD19^−), F4/80^+ macrophages were analyzed by flow cytometry. Olfr2 agonist Oct (10 μM), and antagonist Cit (100 μM) alone or combined (Oct+Cit) were added 60 seconds (s) after the acquisition started. DMSO (0.1%) was injected as a control (Ctrl).
Aortic cell suspensions obtained as previously described^18 were pre-incubated with extracellular markers for vascular macrophages including CD45-PerCP, TCRβ/CD4-APCCy7 (Dump Channel), F4/80-BV421 and LD Yellow fixable dye (Invitrogen) for 20 min in Fc block solution at RT in the dark. Aortic cell suspensions were than washed twice and loaded with 2 μM of Fluo4 dye (Thermo Fischer Scientific) for 30 min at 37° C.
Subsequently, cells were washed and resuspended in 37° C. warm HBSS buffer containing Ca^2+ and Mg^2+ and acquired with the LSRII flow cytometer. After 60 seconds, Oct (10 μM), Cit (100 μM) or vehicle (DMSO 0.1%) was added and acquisition continued for additional 140 seconds. Data was acquired with FACSDiva software (BD Biosciences) and analyzed with FlowJo software (Treestar Inc). Mean fluorescence intensity of Fluo4 was integrated over 25 seconds form the start of the acquisition (tot. 8 intervals).
On the technique in general: A flow cytometer gives signals particle by particle.

`CC(C)=CCCC(C)=CC=O` [citral]: the “octanal-induced IL-1β in the supernatant, hMDMs” value in assay [1] (LPS, octanal + citral) is reported as “partially but significantly inhibited”. For the same molecule, the “octanal-induced calcium flux in vascular macrophages” value in assay [2] (citral 100 μM + octanal 10 μM) is recorded as “completely blocked”.
Turning to `CCCCCCCC=O` [octanal], the “IL-1β in the supernatant, hMDMs” value in assay [1] (LPS 50 ng/mL 18 h, then octanal) is given as “highly significant increase”. The “calcium signal in other immune cells (TCRb+, CD19+)” value in assay [2] (octanal 10 μM, citral 100 μM alone or combined) was “No calcium signal”. Besides, the “intracellular free calcium (Fluo-4 MFI) in F4/80+ vascular macrophages” value in assay [2] (octanal 10 μM, at 100 and 125 s after injection) is recorded as “highly significant increase”.

(Values after patent publication US20210145768A1, “MODULATING IMMUNE RESPONSE VIA TARGETING OF OLFACTORY RECEPTOR ACTIVITY” (La Jolla Institute for Allergy and Immunology, priority 2018, published 2021).)
